Data as given in PubChem BioAssay AID330 (DTP/NCI, 2004).
Toxic doses and inconclusive results are not listed. Rule for the calls: active = survival T/C of 150% or more; inactive = T/C below 125% in these data.

Tested on: P388 leukemia ip, CD2F1 mice, survival T/C
Assay: NCI In Vivo Anticancer Drug Screen. Data for tumor model P388 Leukemia (intraperitoneal) in CD2F1 (CDF1) mice
Conditions: endpoint: median survival time, higher = longer survival
In short: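 Mice carrying the transplanted tumor received test compound or vehicle. Survival was recorded in each group, and the value is the treated-group measurement divided by that of the vehicle-treated control group.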

[1] = dose: 50.0 mg/kg/injection, schedule: Q01DX005 (ip), vehicle: Klucel (hydroxypropylcellulose) (HPC)
[2] = dose: 200.0 mg/kg/injection, schedule: Q01DX005 (ip), vehicle: Klucel (hydroxypropylcellulose) (HPC)
[3] = dose: 50.0 mg/kg/injection, schedule: Q01DX005 (ip), vehicle: saline
[4] = dose: 100.0 mg/kg/injection, schedule: Q01DX005 (ip), vehicle: saline
[5] = dose: 200.0 mg/kg/injection, schedule: Q01DX005 (ip), vehicle: saline

Measured: T/C

C[n+]1ccccc1-c1ccc[n+](CCC[n+]2cccc(-c3cccc[n+]3C)c2)c1
inactive: dose: 100.0 mg/kg/injection, schedule: Q04DX002 (ip), vehicle: saline 105 % of control | dose: 200.0 mg/kg/injection, schedule: Q04DX002 (ip), vehicle: saline 102 % of control | dose: 400.0 mg/kg/injection, schedule: Q04DX002 (ip), vehicle: saline 108 % of control

Nc1nnc(SCCCCCCCCCCCCSc2nnc(N)s2)s1
inactive: dose: 12.5 mg/kg/injection, schedule: Q01DX005 (ip), vehicle: Klucel (hydroxypropylcellulose) (HPC) 91 % of control | dose: 25.0 mg/kg/injection, schedule: Q01DX005 (ip), vehicle: Klucel (hydroxypropylcellulose) (HPC) 90 % of control | [1] 89 % of control | [2] 86 % of control

COC(=O)[C@H](C)[C@@H]1CC[C@](C)(CCC2=C(C)CCCC2(C)C)OO1
inactive: dose: 4.38 mg/kg/injection, schedule: Q01DX005 (ip), vehicle: saline + Tween-80 + alcohol 93 % of control | dose: 8.75 mg/kg/injection, schedule: Q01DX005 (ip), vehicle: saline + Tween-80 + alcohol 100 % of control | dose: 17.5 mg/kg/injection, schedule: Q01DX005 (ip), vehicle: saline + Tween-80 + alcohol 94 % of control | dose: 35.0 mg/kg/injection, schedule: Q01DX005 (ip), vehicle: saline + Tween-80 + alcohol 107 % of control

O=C(CCCCO)c1nc2ccccc2s1
inactive: dose: 60.0 mg/kg/injection, schedule: Q01DX005 (ip), vehicle: Klucel (hydroxypropylcellulose) (HPC) 98 % of control | dose: 120.0 mg/kg/injection, schedule: Q01DX005 (ip), vehicle: Klucel (hydroxypropylcellulose) (HPC) 102 % of control | dose: 240.0 mg/kg/injection, schedule: Q01DX005 (ip), vehicle: Klucel (hydroxypropylcellulose) (HPC) 95 % of control

O=NN(CC1(O)OCC(O)C(O)C1O)C(Cc1ccccc1)C(=O)O (stereo not given)
inactive: [3] 104 % of control | [4] 103 % of control | [5] 97 % of control

CC(=O)OCC1OC(n2cnc3c(Cl)nc(Cl)nc32)C(OC(C)=O)C1OC(C)=O (stereo not given)
inactive: [1] 102 % of control | dose: 100.0 mg/kg/injection, schedule: Q01DX005 (ip), vehicle: Klucel (hydroxypropylcellulose) (HPC) 102 % of control | [2] 115 % of control

CC(=O)CC1(O)C(=O)Nc2ccc(Br)cc21 (stereo not given)
inactive: dose: 50.0 mg/kg/injection, schedule: Q01DX009 (ip), vehicle: Klucel (hydroxypropylcellulose) (HPC) 100 % of control | dose: 100.0 mg/kg/injection, schedule: Q01DX009 (ip), vehicle: Klucel (hydroxypropylcellulose) (HPC) 108 % of control | dose: 200.0 mg/kg/injection, schedule: Q01DX009 (ip), vehicle: Klucel (hydroxypropylcellulose) (HPC) 92 % of control

COC(=O)C1C(CO)ON2CCC(OC)(OC)C12 (stereo not given)
inactive: [3] 99 % of control | [4] 92 % of control | [5] 96 % of control

Clc1c(Cl)c(Cl)c(C[n+]2ccccc2)c(Cl)c1Cl
inactive: dose: 6.25 mg/kg/injection, schedule: Q01DX009 (ip), vehicle: saline 105 % of control | dose: 12.5 mg/kg/injection, schedule: Q01DX009 (ip), vehicle: saline 98 % of control | dose: 25.0 mg/kg/injection, schedule: Q01DX009 (ip), vehicle: saline 102 % of control | dose: 50.0 mg/kg/injection, schedule: Q01DX009 (ip), vehicle: saline 99 % of control

O=S(=O)(Nc1ccc2ccc(NS(=O)(=O)N3CCCCC3)cc2c1)N1CCCCC1
inactive: dose: 50.0 mg/kg/injection, schedule: Q01DX005 (ip), vehicle: saline with Tween-80 104 % of control | dose: 100.0 mg/kg/injection, schedule: Q01DX005 (ip), vehicle: saline with Tween-80 95 % of control | dose: 200.0 mg/kg/injection, schedule: Q01DX005 (ip), vehicle: saline with Tween-80 100 % of control

O=C1OCCOCCSCCOCCOC(=O)c2cccc1n2
inactive: dose: 100.0 mg/kg/injection, schedule: Q04DX003 (ip), vehicle: Klucel (hydroxypropylcellulose) (HPC) 101 % of control | dose: 200.0 mg/kg/injection, schedule: Q04DX003 (ip), vehicle: Klucel (hydroxypropylcellulose) (HPC) 102 % of control | dose: 400.0 mg/kg/injection, schedule: Q04DX003 (ip), vehicle: Klucel (hydroxypropylcellulose) (HPC) 100 % of control

CSc1snc2c1c(=O)n(C)c(=O)n2C
inactive: dose: 25.0 mg/kg/injection, schedule: Q04DX002 (ip), vehicle: saline with Tween-80 98 % of control | dose: 50.0 mg/kg/injection, schedule: Q04DX002 (ip), vehicle: saline with Tween-80 101 % of control | dose: 100.0 mg/kg/injection, schedule: Q04DX002 (ip), vehicle: saline with Tween-80 99 % of control

CN=C(NC)c1cccc(NC(=O)/C=C\c2ccc(/C=C/C(=O)Nc3cccc(C(=NC)NC)c3)cc2)c1
inactive: dose: 1.56 mg/kg/injection, schedule: Q01DX005 (ip), vehicle: saline with Tween-80 121 % of control
